Data reported in patent US8877707B2, “Inhibitors of HCV NS5A” (Presidio Pharmaceuticals, Inc., priority 2010, dated 2014).
pEC50: −log10 of the molar value. Where two headings read alike, the source gives them in different places.

System: HCV genotype 1b replicon in Huh 7 cells
Test: HCV replicon assay (1b_Huh-Luc/Neo-ET cell line, luciferase readout)
Type: cell-based
Conditions: Hepatitis C virus, read-out: Inhibition of HCV genotype 1b
In short: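 Replicon level was read as luciferase signal after 72 h compound exposure, triplicate wells, starting the day after cells were plated. Cell line: 1b_Huh-Luc/Neo-ET. Values normalised to control as percent, and EC50 fitted with a variable-slope sigmoid; determinations repeated.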

[1] = Table 1, genotype 1b replicon, Huh 7 cells, 72 h, luciferase
[2] = Table 2, genotype 1b replicon, Huh 7 cells, 72 h, luciferase

SMILES	pEC50 [1]	further results
COC(=O)N[C@@H](C)C(=O)N1CCC[C@H]1c1ncc(-c2ccc3cc(-c4ccc(-c5cnc([C@@H]6CCCN6C(=O)[C@H](NC(=O)OC)c6ccsc6)[nH]5)cc4)ccc3c2)[nH]1 [compound 464]	–	pEC50 (Huh-7, HCV 1b replicon): > 9.00
COC(=O)NC(C(=O)N1CCC[C@H]1c1ncc(-c2ccc3nc(-c4ccc(-c5cnc([C@@H]6CCCN6C(=O)[C@@H](NC(=O)OC)C6CCOCC6)[nH]5)cc4F)ccc3c2)[nH]1)C1CCOC1 (some centres unmarked) [compound 164]	> 9.00	–
CC[C@H](C)[C@H](NC(=O)OC)C(=O)N1CCC[C@H]1c1nc2ccc(-c3ccc4cc(-c5cnc([C@@H]6CCCN6C(=O)[C@@H](NC(=O)OC)[C@@H](C)OC)[nH]5)ccc4c3)nc2[nH]1 [compound 534]	–	pEC50 (Huh-7, HCV 1b replicon): > 9.00
COC(=O)N[C@H](C(=O)N1CCC[C@H]1c1nc(-c2ccc3cc(-c4ccc(-c5cnc([C@@H]6CCCN6C(=O)[C@H](NC(=O)OC)c6ccccc6)[nH]5)cc4C)ccc3c2)c[nH]1)C(C)C [compound 69]	> 9.00	–
COC(=O)N[C@H](C(=O)N1CCC[C@H]1c1ncc(-c2ccc(-c3nc4cc(-c5cnc([C@@H]6CCCN6C(=O)[C@@H](NC(=O)OC)C(C)C)[nH]5)ccc4s3)cc2)[nH]1)C(C)C [compound 240]	> 9.00	–
CNC(=O)N[C@@H](C(=O)N1CCC[C@H]1c1ncc(-c2ccc(-c3cc4ccc(-c5cnc([C@@H]6CCCN6C(=O)[C@@H](NC(=O)OC)C6CCOCC6)[nH]5)cc4cn3)cc2)[nH]1)c1ccccc1 [compound 144]	> 9.00	–
COC(=O)N[C@H](C(=O)N1CCC[C@H]1c1ncc(-c2ccc3cc(-c4cnc5nc([C@@H]6CCCN6C(=O)[C@@H](NC(=O)OC)C6CCCCC6)[nH]c5c4)ccc3c2)[nH]1)C1CCCCC1 [compound 409]	–	pEC50 [2]: > 9.00
COC(=O)N[C@@H](C)C(=O)N1CCC[C@H]1c1ncc(-c2ccc(-c3ccc4cc(-c5c[nH]c([C@@H]6CCCN6C(=O)[C@@H](NC(=O)OC)C(C)C)n5)ccc4n3)cc2)[nH]1 [compound 44]	> 9.00	–
CC[C@H](C)[C@H](NC(=O)OC)C(=O)N1CCC[C@H]1c1ncc(-c2ccc3cc(-c4ccc5nc([C@@H]6CCCN6C(=O)[C@@H](NC(=O)OC)[C@@H](C)CC)[nH]c5c4)ncc3c2)[nH]1 [compound 374]	–	pEC50 [2]: > 9.00
COC(=O)N[C@H](C(=O)N1CCC[C@H]1c1nc(-c2ccc3nc(-c4ccc(-c5cnc([C@@H]6CCCN6C(=O)[C@H](NC(=O)NC6CC6)c6ccccc6)[nH]5)cc4)ccc3c2)c[nH]1)C(C)C [compound 34]	> 9.00	–
COC(=O)N[C@H](C(=O)N1CCC[C@H]1c1ncc(-c2ccc3nc(-c4ccc(-c5cnc([C@@H]6CCCN6C(=O)[C@H](NC(=O)OC(C)(C)C)c6ccccc6)[nH]5)cc4F)ccc3c2)[nH]1)C1CCOCC1 [compound 135]	> 9.00	–
COC(=O)N[C@H](C(=O)N1CCC[C@H]1c1nc(-c2cnc3cc(-c4ccc(-c5cnc([C@@H]6CCCN6C(=O)[C@@H](NC(=O)OC)C(C)C)[nH]5)nc4)ccc3c2)c[nH]1)C(C)C [compound 93]	> 9.00	–
COC(=O)N[C@H](C(=O)N1CCC[C@H]1c1ncc(-c2ccc3cc(-c4ccc5nc([C@@H]6CCCN6C(=O)[C@@H](NC(=O)OC)C(C)C)[nH]c5c4)ccc3c2)[nH]1)C(C)C [compound 174]	> 9.00	–
COC(=O)N[C@@H](C)C(=O)N1CCC[C@H]1C(=O)Nc1ccc(-c2ccc3cc(-c4cnc([C@@H]5CCCN5C(=O)[C@H](C)NC(=O)OC)[nH]4)ccc3c2)cc1 [compound 570]	–	pEC50 (Huh-7, HCV 1b replicon): 8.00 to 9.00
CC[C@H](C)[C@H](NC(=O)OC)C(=O)N1CCC[C@H]1c1ncc(-c2ccc3cc(-c4cnc5nc([C@@H]6CCCN6C(=O)[C@@H](NC(=O)OC)[C@@H](C)CC)[nH]c5c4)ccc3c2)[nH]1 [compound 404]	–	pEC50 [2]: > 9.00
COC(=O)N[C@H](C(=O)N1CCC[C@H]1c1nc(-c2ccc3c(=O)n(-c4ccc(-c5cnc([C@@H]6CCCN6C(=O)[C@@H](NC(=O)OC)C(C)C)[nH]5)cc4)ccc3c2)c[nH]1)C(C)C [compound 287]	> 9.00	–
CCC(CC)[C@H](NC(=O)OC)C(=O)N1CCC[C@H]1c1ncc(-c2ccc(-c3ccc4cc(-c5cnc([C@@H]6CCCN6C(=O)[C@@H](NC(=O)OC)[C@@H](C)OC)[nH]5)ccc4c3)cc2)[nH]1 [compound 505]	–	pEC50 (Huh-7, HCV 1b replicon): > 9.00
COC(=O)N[C@H](C(=O)N1CCC[C@H]1c1ncc(-c2ccc(-c3ccc4cc(-c5cnc([C@@H]6CCCN6C(=O)[C@@H](NC(=O)OC)C6CC6)[nH]5)ccc4c3)cc2)[nH]1)C1CC1 [compound 143]	> 9.00	–
COC(=O)N[C@H](C(=O)N1CCC[C@H]1c1ncc(-c2ccc(-c3nc4ccc(-c5cnc([C@@H]6CCCN6C(=O)[C@@H](NC(=O)OC)C(C)C)[nH]5)cc4n3C)cc2)[nH]1)C(C)C [compound 231]	> 9.00	–
COC(=O)N[C@H](C(=O)N1CCC[C@H]1c1ncc(-c2ccc3nc(-c4ccc5c(ccc6nc([C@@H]7CCCN7C(=O)[C@@H](NC(=O)OC)C(C)C)[nH]c65)c4)ccc3c2)[nH]1)C(C)C [compound 296]	> 9.00	–
COC(=O)N[C@H](C(=O)N1CCC[C@H]1c1ncc(-c2ccc3cc(-c4cc5[nH]c([C@@H]6CCCN6C(=O)[C@@H](NC(=O)OC)C(C)C)nc5cn4)ccc3c2)[nH]1)C(C)C [compound 527]	–	pEC50 (Huh-7, HCV 1b replicon): > 9.00

SMILES	pEC50 [1]	further results
COC(=O)N[C@H](C(=O)N1CCC[C@H]1c1nc(-c2ccc3nc(-c4ccc(-c5cnc([C@@H]6CCCN6C(=O)[C@@H](NC(=O)OC)C6CCOCC6)[nH]5)cc4F)ccc3c2)c[nH]1)C1CCOCC1 [compound 98]	> 9.00	–
COC(=O)N[C@@H](C(=O)N1CCC[C@H]1c1ncc(-c2ccc(-c3nc4ccc(-c5cnc([C@@H]6CCCN6C(=O)[C@H](NC(=O)OC)c6ccccc6)[nH]5)cc4s3)cc2)[nH]1)c1ccccc1 [compound 230]	> 9.00	–
CCNC(=O)N[C@@H](C(=O)N1CCC[C@H]1c1ncc(-c2ccc3nc(-c4ccc(-c5cnc([C@@H]6CCCN6C(=O)[C@@H](NC(=O)OC)C(C)C)[nH]5)cc4)oc3c2)[nH]1)c1ccccc1 [compound 252]	> 9.00	–
CC[C@H](NC(=O)OC)C(=O)N1CCC[C@H]1c1ncc(-c2ccc3cc(-c4ccc5nc([C@@H]6COCCN6C(=O)[C@H](CC)NC(=O)OC)[nH]c5c4)ccc3c2)[nH]1 [compound 357]	–	pEC50 [2]: > 9.00
COC(=O)N[C@H](C(=O)N1CCC[C@H]1c1ncc(-c2ccc(-c3ccc4cc(-c5cnc([C@@H]6CCCN6C(=O)[C@@H](NC(=O)OC)C6CCOCC6)[nH]5)ccc4c3)cc2)[nH]1)C1CCOCC1 [compound 133]	> 9.00	–
COC(=O)N[C@H](C(=O)N1CCC[C@H]1c1nc(-c2ccc3cc(-c4ccc(-c5cnc([C@@H]6CCCN6C(=O)[C@H](NC(=O)OC)c6ccccc6)[nH]5)cc4)ncc3c2)c[nH]1)C1CCOCC1 [compound 100]	> 9.00	–
CCNC(=O)N[C@@H](C(=O)N1CCC[C@H]1c1ncc(-c2ccc(-c3ccc4cc(-c5c[nH]c([C@@H]6CCCN6C(=O)[C@@H](NC(=O)OC)C(C)C)n5)ccc4n3)cc2)[nH]1)c1ccccc1 [compound 33]	> 9.00	–
COC(=O)N[C@H](C(=O)N1CCC[C@H]1c1ncc(-c2ccc3cc(-c4ccc(-c5cnc([C@@H]6CCCN6C(=O)[C@@H](c6ccccc6)N6CCOCC6)[nH]5)cc4)ccc3c2)[nH]1)C(C)C [compound 116]	> 9.00	–
COC(=O)N[C@H](C(=O)N1CCC[C@H]1c1ncc(-c2ccc3cc(-c4ccc5nc([C@@H]6CCCN6C(=O)[C@@H](NC(=O)OC)C6CC6)[nH]c5c4)ncc3c2)[nH]1)C1CC1 [compound 376]	–	pEC50 [2]: > 9.00
COC(=O)N[C@H](C(=O)N1CCC[C@H]1CNC(=O)c1cnc2cc(-c3ccc(-c4cnc([C@@H]5CCCN5C(=O)[C@@H](NC(=O)OC)C(C)C)[nH]4)cc3)ccc2c1)C(C)C [compound 552]	–	pEC50 (Huh-7, HCV 1b replicon): 8.00 to 9.00
COC(=O)N[C@H](C(=O)N1CCC[C@H]1c1nc(-c2ccc3nc(-c4ccc(-c5cnc([C@@H]6CCCN6C(=O)[C@H](NC(=O)OC(C)(C)C)c6ccccc6)[nH]5)cc4)ccc3c2)c[nH]1)C(C)C [compound 30]	> 9.00	–
COC(=O)N[C@@H](C(=O)N1CCC[C@H]1c1ncc(-c2ccc(-c3ccc4cc(-c5cnc([C@@H]6CCCN6C(=O)[C@H](NC(=O)OC6CCOCC6)c6ccccc6)[nH]5)ccc4n3)cc2F)[nH]1)c1ccccc1 [compound 474]	–	pEC50 (Huh-7, HCV 1b replicon): > 9.00
CNC(=O)N[C@@H](C(=O)N1CCC[C@H]1c1nc(-c2ccc3nc(-c4ccc(-c5cnc([C@@H]6CCCN6C(=O)[C@@H](NC(=O)OC)C(C)C)[nH]5)cc4)ccc3c2)c[nH]1)c1ccccc1 [compound 36]	> 9.00	–
COC(=O)N[C@H](C(=O)N1CCC[C@H]1c1nc(-c2ccc3cc(-c4ccc(-c5cnc([C@@H]6CCCN6C(=O)[C@@H](NC(=O)OC)C6CCOCC6)[nH]5)cc4C)ccc3c2)c[nH]1)C(C)C [compound 86]	> 9.00	–
COC(=O)N[C@H](C(=O)N1CCC[C@H]1c1nc(-c2cnc3cc(-c4ccc(-c5cnc([C@@H]6CCCN6C(=O)[C@H](NC(=O)OC(C)(C)C)c6ccccc6)[nH]5)cc4)ccc3c2)c[nH]1)C1CCOCC1 [compound 72]	> 9.00	–
COC(=O)N[C@H](C(=O)N1C[C@H](O)C[C@H]1c1ncc(-c2ccc(-c3ccc4cc(-c5cnc([C@@H]6CCCN6C(=O)[C@H](NC(=O)OC)c6ccccc6)[nH]5)ccc4n3)cc2)[nH]1)C(C)C [compound 148]	> 9.00	–
COC(=O)N[C@H](C(=O)N1CCC[C@H]1c1nc(-c2ccc3cc(-c4ccc(-c5cnc([C@@H]6CCCN6C(=O)[C@@H](NC(=O)OC)[C@@H](C)OC)[nH]5)cc4)ccc3c2)c[nH]1)[C@@H](C)OC [compound 3]	> 9.00	–
COC(=O)N[C@H](C(=O)N1CCC[C@H]1c1ncc(-c2ccc(-c3ccc4cc(-c5c[nH]c([C@@H]6CCCN6C(=O)[C@H](NC(=O)OC)c6ccccc6)n5)ccc4c3)cc2)[nH]1)C1CCOCC1 [compound 105]	> 9.00	–
COC(=O)N[C@H](C(=O)N[C@@H](C)c1ncc(-c2ccc3cc(-c4ccc(-c5cnc([C@@H]6CCCN6C(=O)[C@@H](NC(=O)OC)C(C)C)[nH]5)cc4)ccc3c2)[nH]1)C(C)C [compound 304]	–	pEC50 [2]: > 9.00
COC(=O)N[C@@H](C(=O)N1CCC[C@H]1c1ncc(-c2ccc(-c3nc4cc(-c5cnc([C@@H]6CCCN6C(=O)[C@H](NC(=O)OC)c6ccccc6)[nH]5)ccc4n3C)cc2)[nH]1)c1ccccc1 [compound 233]	> 9.00	–
